Values joined by “and” are separate entries in the source; they are usually repeats but may differ in a detail not shown here. Equal entries are not always repeated. Where two headings read alike, the source gives them in different places. Where a SMILES comes first, the peptide text is derived from it.
Tests used:
[1] = tested on: Murine norovirus strain 1 (MNV-1); assay: Attachment assay, MNV-1; type: cell-based; details: attachment: cells with peptide 80 µM and virus together 1 h at 4 °C, mean ± SD
Protocol: (§1) Four sets of experiments were performed to suppose the effect of RiLK1 and RiLK3 on HAV and MNV-1 [29]. To this aim, 80 µM solutions of the two peptides and HAV and MNV-1 suspensions at a final concentration of 4.7 ± 0.2 log TCID50/mL and 4.5 ± 0.2 log TCID50/mL, respectively, were used in the following experiments: • i) A virus pre-treatment assay to assess the direct interaction between the virus and peptide: the incubation of the peptide with viral suspension for 1 h at room temperature was carried out, followed by its incubation on cells for 1 h at 37 °C. Then, cell monolayers were washed twice with PBS and incubated with 500 µL DMEM/MEM supplemented with 2% of FBS to determine the TCID50/mL. • ii) A cell pre-treatment assay to assess the interaction between the peptide and cells before the viral infection: cell monolayers were preincubated with 100 µL of peptide solution for 1 h at 37 °C, followed by the removal of the peptide, addition to cells of viral suspensions for 1 h at 37 °C, washing step, and culture with 2% FBS DMEM/MEM. • iii) An attachment assay to assess the possible action of the peptide at the stage of virus attachment to cells: cell monolayers were incubated with 100 µL of a suspension containing both the peptide and virus and were incubated for 1 h at 4 °C. Subsequently, the cell monolayers were washed with PBS and incubated for 1 h at 37 °C with a culture medium followed by a washing step and the addition of culture with 2% FBS DMEM/MEM. • iv) An entry assay to assess the possible action of the peptide at the stage of virus internalization into cells: cell monolayers were incubated with 100 µL of the viral suspension for 1 h at 4 °C, followed by the addition of the peptide and incubation for 1 h at 37 °C. Cells were then washed with PBS, and 2% FBS DMEM/MEM was finally added.
(§2) Untreated viral suspensions and peptide solutions, incubated at the same conditions, were used as controls.
(§3) For each treatment, the average and standard deviation of the triplicate analyses were calculated. The virucidal effects of AMPs was assessed by calculating the log reduction value (LRV), i.e., the difference between the infectious titer (log-transformed) of untreated versus treated samples. The statistical significance of differences between treated and untreated samples was determined through one-way analysis of variance (ANOVA) with Bonferroni post hoc comparisons, with a significance level of p < 0.05 (GraphPad Prism v9.5.0, software San Diego, CA, USA).

[2] = tested on: Hepatitis A virus (HAV) strain HM-175; details: cited from earlier work; for LRV (log reduction value) / Viral Titre after Treatment: RT (20 ± 2 °C), mean ± SD, ref [46] (table footnote; text b35 cites [45])
Text: Table 2 In vitro effect of peptides on HAV. | column: Viral Titre after Treatment (logTCID50/mL ± SD) / RT; LRV (logTCID50/mL ± SD) / RT || In a previous work, the antiviral effects of RiLK1 and RiLK3 were already investigated against hepatitis A virus (HAV) following treatment at room temperature, and the obtained results are reported in Table 2. Briefly, RiLK1 was able to reduce HAV infectivity by more than 1 log in comparison with the untreated virus, displaying a log reduction value (LRV) of 1.4 at 80 μM and 1.1 at 40 μM concentration. […] Therefore, based on these preliminary results, further insights into the virucidal activity ...

[3] = tested on: Hepatitis A virus (HAV) strain HM-175; assay: Cell pre-treatment assay, HAV; type: cell-based; details: cell pre-treatment: cells with peptide 80 µM 1 h 37 °C, peptide removed, then virus 1 h 37 °C, mean ± SD
Protocol: as §1, §2, §3

[4] = tested on: Hepatitis A virus (HAV) strain HM-175; assay: Virucidal effect of peptides on HAV (residual infectivity by TCID50 titration on Frp3 cells); type: cell-based; details: for Viral Titre after Treatment: titration on Frp3 cells; for Viral Titre after Treatment / LRV (log reduction value): mean ± SD, triplicate
Text: (§4) Murine norovirus strain 1 (MNV-1) was used as a surrogate for human norovirus (NoV). The virus was replicated in RAW 264.7 cells (murine macrophage cell line) cultured in Dulbecco’s modified Eagle’s medium (DMEM) supplemented with 1% glutamine, 1% non-essential amino acids, and 2% fetal bovine serum (FBS). Hepatitis A virus (HAV) strain HM-175 was replicated in Frp3 cells (non-human primate cell line derived from fetal kidney) cultured in minimum essential medium (MEM) with Earle’s salts supplemented with 1% glutamine, 2% non-essential amino acids, and 2% FBS. Both viruses were incubated in 5% CO2 at 37 °C. All cell culture media were provided by EuroClone (Milan, Italy). The viral suspensions were prepared by freeze and thaw lysis (1 cycle for MNV-1 and 3 cycles for HAV) of infected monolayers, clarified using low-speed centrifugation (800× g) to remove residual cell debris, then divided in aliquots, and stored at −80 °C until use.
(§5) Solutions 40 µM and 80 µM of each peptide of the panel (RiLK1, RiLK3, RiLK30, 1018-K6, MTP1, and AVP2) were chosen for the virucidal tests. HAV and MNV-1 were assayed at a concentration of 4.7 ± 0.2 log TCID50/mL and 4.5 ± 0.2 log TCID50/mL, respectively. The suspensions containing the peptides and viruses were incubated for 1 h at room temperature (RT,20 ± 2 °C) and 4 °C. These temperatures were chosen to simulate the use of sanitizing solutions in food production/processing environments. Residual viral infectivity was evaluated by titration (TCID50/mL) on Frp3 cells for HAV and on RAW 264.7 cells for MNV-1. Untreated HAV and MNV-1 suspensions and 40 µM and 80 µM AMP solutions, incubated at the same conditions, were used as controls. Each treatment condition was assayed in triplicate. For titration, 100 µL of serial tenfold dilutions of each sample were assayed in 24-well tissue culture plates containing 24–48 h cell monolayers and incubated for 1 h in 5% CO2 at 37 °C. After that, the wells were washed twice with 200 µL of PBS, and 500 µL of DMEM/MEM, supplemented with 2% of FBS, were was added to each well; MNV-1 and HAV incubations were carried for up to 6 days and 14 days, respectively, in 5% CO2 at 37 °C with daily visual inspection to determine the cytopathic effect. The virucidal efficacy of AMPs was estimated by comparing the titers of treated and untreated viral suspensions.
as §3

[5] = tested on: Murine norovirus strain 1 (MNV-1); type: cell-based; details: for Viral Titre after Treatment: titration on RAW 264.7 cells; for Viral Titre after Treatment / LRV (log reduction value): mean ± SD, triplicate; for virucidal activity toward MNV-1 (in words): 40 and 80 µM, 4 °C and RT
Text: as §4, §5, §3

[6] = HAV 4.7 ± 0.2 log TCID50/mL + peptide 80 µM, 1 h at 4 °C
[7] = HAV + peptide 40 µM, 1 h at 4 °C
[8] = HAV + peptide 40 µM, 1 h at 4 °C, untreated minus treated titre
[9] = HAV + peptide 80 µM, 1 h at 4 °C, untreated minus treated titre
[10] = maximum reduction, corresponding to the highest LRV
[11] = MNV-1 4.5 ± 0.2 log TCID50/mL + peptide 80 µM, 1 h at 4 °C
[12] = MNV-1 + peptide 40 µM, 1 h at 4 °C
[13] = MNV-1 + peptide 40 µM, 1 h at RT (20 ± 2 °C)
[14] = MNV-1 + peptide 80 µM, 1 h at 4 °C
[15] = MNV-1 + peptide 80 µM, 1 h at RT (20 ± 2 °C)
[16] = HAV + peptide 40 µM, 1 h at RT (20 ± 2 °C)
[17] = HAV + peptide 80 µM, 1 h at RT (20 ± 2 °C)

Molecule	LRV [1]	Viral Titre [1]	LRV (log reduction value) ([2]; HAV + peptide 40 µM)	Viral Titre after Treatment ([2]; HAV + peptide 40 µM)	LRV (log reduction value) ([2]; HAV + peptide 80 µM)	Viral Titre after Treatment ([2]; HAV + peptide 80 µM)	LRV [3]	Viral Titre [3]	Viral Titre after Treatment [4, 6]	Viral Titre after Treatment [4, 7]	LRV (log reduction value) [4, 8]	LRV (log reduction value) [4, 9]	Viral Titre after Treatment [5, 11]	LRV (log reduction value) [5, 12]	Viral Titre after Treatment [5, 12]	LRV (log reduction value) [5, 13]	Viral Titre after Treatment [5, 13]	LRV (log reduction value) [5, 14]	LRV (log reduction value) [5, 15]	Viral Titre after Treatment [5, 15]	other results
CC[C@H](C)[C@H](NC(=O)[C@H](CCCNC(=N)N)NC(=O)[C@@H](NC(=O)[C@H](Cc1c[nH]c2ccccc12)NC(=O)[C@H](CCCCN)NC(=O)[C@H](CC(C)C)NC(=O)[C@@H](N)CCCNC(=N)N)C(C)C)C(=O)N[C@@H](Cc1c[nH]c2ccccc12)C(=O)N[C@@H](CCCNC(=N)N)C(=O)N[C@@H](CCCNC(=N)N)C(N)=O [RiLK1] (H-RLKWVRIWRR-NH2; N-terminus assumed)	1.4 logTCID50/mL and 1.4 ± 0.4 logTCID50/mL	3.1 ± 0.2 logTCID50/mL	1.1 logTCID50/mL and 1.1 ± 0.3 *^,a logTCID50/mL	3.6 ± 0.1 *^,a logTCID50/mL	1.4 logTCID50/mL and 1.4 ± 0.4 *^,a logTCID50/mL	3.3 ± 0.2 *^,a logTCID50/mL	0.1 ± 0.3 logTCID50/mL	4.6 ± 0.1 logTCID50/mL	3.6 ± 0.1 logTCID50/mL	3.9 ± 0.2 logTCID50/mL	0.8 ± 0.4 logTCID50/mL	1.1 ± 0.3 logTCID50/mL	4.3 ± 0.2 logTCID50/mL	0.2 ± 0.4 logTCID50/mL	4.3 ± 0.2 logTCID50/mL	1.0 ± 0.4 logTCID50/mL	3.5 ± 0.2 logTCID50/mL	0.2 ± 0.4 logTCID50/mL	1.2 ± 0.4 logTCID50/mL	3.3 ± 0.2 logTCID50/mL	reduction of HAV infectivity in comparison with the untreated virus ([2]; room temperature, ref [45]): more than 1 log; decrease of HAV infectious titer [4, 10]: up to 96.7%; reduction of MNV-1 infectivity [5, 10]: up to 94.1%
KLRWVKIWKK-NH2 [RiLK30, newly designed RiLK1 derivative, Arg residues exchanged with Lys and Lys3 with Arg]									4.3 ± 0.2 logTCID50/mL	4.3 ± 0.2 logTCID50/mL	0.4 ± 0.4 logTCID50/mL	0.4 ± 0.4 logTCID50/mL	3.9 ± 0.2 logTCID50/mL	0.2 ± 0.5 logTCID50/mL	4.3 ± 0.3 logTCID50/mL	0 ± 0.4 logTCID50/mL	4.5 ± 0.2 logTCID50/mL	0.6 ± 0.4 logTCID50/mL	0 ± 0.3 logTCID50/mL	4.5 ± 0.1 logTCID50/mL	virucidal activity toward HAV (in words) ([4]; 40 and 80 µM, 4 °C and RT): no virucidal activity; LRV (log reduction value) [4, 16]: 0.6 ± 0.4 logTCID50/mL; Viral Titre after Treatment [4, 16]: 4.1 ± 0.2 logTCID50/mL; LRV (log reduction value) [4, 17]: 0.6 ± 0.4 logTCID50/mL; Viral Titre after Treatment [4, 17]: 4.1 ± 0.2 logTCID50/mL; virucidal activity toward MNV-1 (in words) [5]: no virucidal activity
RLRWVRIWRR-NH2 [RiLK3, RiLK1 analog differing by one amino acid (Lys replaced with Arg), C-terminally amidated]	1.0 logTCID50/mL and 1.0 ± 0.3 logTCID50/mL	3.5 ± 0.1 logTCID50/mL	0.3 ± 0.3 ^a logTCID50/mL	4.4 ± 0.1 ^a logTCID50/mL	0.3 ± 0.3 ^a logTCID50/mL	4.4 ± 0.1 ^a logTCID50/mL	0.9 logTCID50/mL and 0.9 ± 0.4 logTCID50/mL	3.8 ± 0.2 logTCID50/mL	4.6 ± 0.1 logTCID50/mL	4.6 ± 0.3 logTCID50/mL	0.1 ± 0.2 logTCID50/mL	0.1 ± 0.3 logTCID50/mL	4.5 ± 0.2 logTCID50/mL	0 ± 0.3 logTCID50/mL	4.5 ± 0.1 logTCID50/mL	0 ± 0.4 logTCID50/mL	4.5 ± 0.2 logTCID50/mL	0 ± 0.4 logTCID50/mL	0 ± 0.3 logTCID50/mL	4.5 ± 0.1 logTCID50/mL	inhibition of HAV infection (in words) ([2]; 40 and 80 µM, room temperature, ref [45]): unable to inhibit HAV infection; virucidal activity toward MNV-1 (in words) [5]: not effective
